Biological target: Phosphodiesterase 3 (Homo sapiens, UniProt Q14432+Q13370)
Test: Inhibition of cAMP PDE 3
Assay type: protein assay

Row | IC50 [µM] | Structure (SMILES)
1 | 0.067 | CCCc1nccc2nc3nc(O)sc3cc12
2 | 0.33 | CC(C)Cc1nccc2nc3nc(O)sc3cc12
3 | 0.43 | Oc1nc2nc3ccnc(-c4ccccc4)c3cc2s1
4 | 0.24 | Oc1ccc(-c2nccc3nc4nc(O)sc4cc23)cc1
5 | 0.083 | O=[N+]([O-])c1cc(-c2nccc3nc4nc(O)sc4cc23)ccc1O
6 | 0.022 | CCc1nccc2nc3nc(O)sc3cc12
7 | 0.062 | Cc1nccc2nc3nc(O)sc3cc12

Reference: ChEMBL document CHEMBL1128685, “Novel and potent adenosine 3',5'-cyclic phosphate phosphodiesterase III inhibitors: thiazolo[4,5-b][1,6]naphthyridin-2-ones” (J Med Chem, 1995)
